Data on 35 molecules can be found in the NIST ThermoML archive (doi:10.1021/je200195q).

This series in a line: activity coefficient (dimensionless); of the first substance listed, at infinite dilution; xn = mol fraction of the nth substance listed. Conditions: 101 kPa, Liquid, Chromatography, x1 = 0.

Each structure is given as a SMILES string. Numbers after ± are expanded uncertainties.

Turning to `CC(C)CO` [2-methyl-1-propanol] + CCCCCC[n+]1ccn(C)c1.FC(F)(F)C(F)(F)[P-](F)(F)(F)(C(F)(F)C(F)(F)F)C(F)(F)C(F)(F)F, the activity coefficient reads like this: (312.8 K) 2.77 ± 0.19; (332.85 K) 2.13 ± 0.14; (354.65 K) 1.62 ± 0.11.

Consider `CCC=O` [propanal] + CCCCCC[n+]1ccn(C)c1.FC(F)(F)C(F)(F)[P-](F)(F)(F)(C(F)(F)C(F)(F)F)C(F)(F)C(F)(F)F, for which the activity coefficient runs as follows: (312.8 K) 0.274 ± 0.03; (332.85 K) 0.283 ± 0.03; (354.65 K) 0.285 ± 0.031.

For `c1ccsc1` [thiophene] + CCCCCCCCCCn1cc[n+](CCCCCCCCCC)c1C.O=S(=O)([N-]S(=O)(=O)C(F)(F)F)C(F)(F)F, the activity coefficient amounted to 0.422 ± 0.035 (323.1 K), 0.423 ± 0.035 (333.15 K) and 0.424 ± 0.035 (343.15 K).

For `c1ccncc1` [pyridine] + CCCCn1cc[n+](C)c1.O=S(=O)([N-]S(=O)(=O)C(F)(F)C(F)(F)F)C(F)(F)C(F)(F)F, the activity coefficient reads like this: (322.55 K) 0.386 ± 0.033; (342.75 K) 0.429 ± 0.035; (362.65 K) 0.45 ± 0.036.

Regarding `C1COCCO1` [1,4-dioxane] + CCCCn1cc[n+](C)c1.O=S(=O)([N-]S(=O)(=O)C(F)(F)C(F)(F)F)C(F)(F)C(F)(F)F, the activity coefficient was found to be 0.429 ± 0.035 (322.55 K), 0.607 ± 0.042 (342.75 K) and 0.576 ± 0.041 (362.65 K).

On to `CCN(CC)CC` [triethylamine] + CCCCCC[n+]1ccn(C)c1.FC(F)(F)C(F)(F)[P-](F)(F)(F)(C(F)(F)C(F)(F)F)C(F)(F)C(F)(F)F, for which the activity coefficient runs as follows: (312.8 K) 2.09 ± 0.14; (332.85 K) 1.96 ± 0.13; (354.65 K) 1.76 ± 0.12.

In the case of `CC(C)OC(C)C` [diisopropyl ether] + CCCCCCCCCCn1cc[n+](CCCCCCCCCC)c1C.O=S(=O)([N-]S(=O)(=O)C(F)(F)F)C(F)(F)F, the activity coefficient runs as follows: (323.1 K) 1.12 ± 0.071; (333.15 K) 1.23 ± 0.079; (343.15 K) 1.23 ± 0.079.

In the case of `CCC(=O)CC` [pentan-3-one] + CCn1cc[n+](C)c1.CS(=O)(=O)[O-], the activity coefficient amounted to 7.58 ± 0.52 (312.55 K), 7.45 ± 0.51 (322.45 K) and 7.37 ± 0.5 (332.45 K).

As for `C[N+](=O)[O-]` [nitromethane] + CCCCCCCCCCn1cc[n+](CCCCCCCCCC)c1C.O=S(=O)([N-]S(=O)(=O)C(F)(F)F)C(F)(F)F, the activity coefficient (323.1 K) worked out at 0.596 ± 0.042, the activity coefficient (333.15 K) was determined as 0.559 ± 0.04 and the activity coefficient (343.15 K) was found to be 0.536 ± 0.039.

For `CCC=O` [propanal] + CCCCn1cc[n+](C)c1.O=S(=O)([N-]S(=O)(=O)C(F)(F)C(F)(F)F)C(F)(F)C(F)(F)F, the activity coefficient (322.55 K) is 0.539 ± 0.039, the activity coefficient (342.75 K) came out at 0.533 ± 0.039 and the activity coefficient (362.65 K) worked out at 0.522 ± 0.039.

As for `CCC(C)CC` [3-methylpentane] + CCCCCC[n+]1ccn(C)c1.FC(F)(F)C(F)(F)[P-](F)(F)(F)(C(F)(F)C(F)(F)F)C(F)(F)C(F)(F)F, the activity coefficient runs as follows: (312.8 K) 5.63 ± 0.38; (332.85 K) 5.05 ± 0.34; (354.65 K) 4.43 ± 0.3.

Consider `CCCCCCCCCCCCCC` [tetradecane] + CCCCn1cc[n+](C)c1.O=S(=O)([N-]S(=O)(=O)C(F)(F)C(F)(F)F)C(F)(F)C(F)(F)F, for which the activity coefficient (322.55 K) was 153 ± 11, the activity coefficient (342.75 K) stood at 113 ± 7.7 and the activity coefficient (362.65 K) is 91.5 ± 6.3.

For `CC#N` [acetonitrile] + CCCCn1cc[n+](C)c1.O=S(=O)([N-]S(=O)(=O)C(F)(F)C(F)(F)F)C(F)(F)C(F)(F)F, the activity coefficient by setting is: (322.55 K) 0.528 ± 0.039; (342.75 K) 0.514 ± 0.038; (362.65 K) 0.504 ± 0.038.

With `CCCC(C)=O` [pentan-2-one] + CCn1cc[n+](C)c1.CS(=O)(=O)[O-], the activity coefficient runs as follows: (312.55 K) 7.79 ± 0.53; (322.45 K) 7.7 ± 0.53; (332.45 K) 7.57 ± 0.52.

In the case of `CCCO` [propan-1-ol] + CCn1cc[n+](C)c1.CS(=O)(=O)[O-], the activity coefficient by setting is: (312.55 K) 0.742 ± 0.049; (322.45 K) 0.734 ± 0.049; (332.45 K) 0.722 ± 0.048.

Regarding `C=O` [methanal] + CCCCCCCCCCn1cc[n+](CCCCCCCCCC)c1C.O=S(=O)([N-]S(=O)(=O)C(F)(F)F)C(F)(F)F, the activity coefficient was 0.074 ± 0.03 (323.1 K), 0.08 ± 0.03 (333.15 K) and 0.085 ± 0.03 (343.15 K).

Regarding `c1ccncc1` [pyridine] + CCCCCC[n+]1ccn(C)c1.FC(F)(F)C(F)(F)[P-](F)(F)(F)(C(F)(F)C(F)(F)F)C(F)(F)C(F)(F)F, the activity coefficient reads like this: (312.8 K) 0.302 ± 0.031; (332.85 K) 0.326 ± 0.032; (354.65 K) 0.331 ± 0.032.

`CCc1ccccc1` [ethylbenzene] + CCCCCCCCCCn1cc[n+](CCCCCCCCCC)c1C.O=S(=O)([N-]S(=O)(=O)C(F)(F)F)C(F)(F)F: the activity coefficient runs as follows: (323.1 K) 0.652 ± 0.045; (333.15 K) 0.662 ± 0.045; (343.15 K) 0.689 ± 0.046.

As for `C#CCCCCC` [1-heptyne] + CCCCCC[n+]1ccn(C)c1.FC(F)(F)C(F)(F)[P-](F)(F)(F)(C(F)(F)C(F)(F)F)C(F)(F)C(F)(F)F, the activity coefficient reads like this: (312.8 K) 2.54 ± 0.17; (332.85 K) 2.5 ± 0.17; (354.65 K) 2.32 ± 0.16.

With `CCC(C)=O` [butanone] + CCCCCCCCCCn1cc[n+](CCCCCCCCCC)c1C.O=S(=O)([N-]S(=O)(=O)C(F)(F)F)C(F)(F)F, the activity coefficient amounted to 0.318 ± 0.031 (323.1 K), 0.292 ± 0.031 (333.15 K) and 0.264 ± 0.03 (343.15 K).

As for `CC(C)CC(C)(C)C` [2,2,4-trimethylpentane] + CCCCn1cc[n+](C)c1.O=S(=O)([N-]S(=O)(=O)C(F)(F)C(F)(F)F)C(F)(F)C(F)(F)F, the activity coefficient runs as follows: (322.55 K) 13.3 ± 0.91; (342.75 K) 11.7 ± 0.8; (362.65 K) 10.5 ± 0.72.

For `CCCCCCCCCCCC` [dodecane] + CCCCCC[n+]1ccn(C)c1.FC(F)(F)C(F)(F)[P-](F)(F)(F)(C(F)(F)C(F)(F)F)C(F)(F)C(F)(F)F, the activity coefficient by setting is: (312.8 K) 39.3 ± 2.7; (332.85 K) 33.1 ± 2.3; (354.65 K) 25.7 ± 1.8.

Regarding `CCCCCCCC` [octane] + CCCCn1cc[n+](C)c1.O=S(=O)([N-]S(=O)(=O)C(F)(F)C(F)(F)F)C(F)(F)C(F)(F)F, the activity coefficient is, setting by setting: (322.55 K) 20.4 ± 1.4; (342.75 K) 17.3 ± 1.2; (362.65 K) 15.5 ± 1.1.

Regarding `C[N+](=O)[O-]` [nitromethane] + CCCCn1cc[n+](C)c1.O=S(=O)([N-]S(=O)(=O)C(F)(F)C(F)(F)F)C(F)(F)C(F)(F)F, the activity coefficient runs as follows: (322.55 K) 0.625 ± 0.043; (342.75 K) 0.682 ± 0.046; (362.65 K) 0.699 ± 0.047.

Turning to `CC(C)O` [propan-2-ol] + CCn1cc[n+](C)c1.CS(=O)(=O)[O-], the activity coefficient runs as follows: (312.55 K) 0.924 ± 0.058; (322.45 K) 0.907 ± 0.058; (332.45 K) 0.877 ± 0.056.

Regarding `CC(C)CC(C)(C)C` [2,2,4-trimethylpentane] + CCn1cc[n+](C)c1.CS(=O)(=O)[O-], the activity coefficient by setting is: (312.55 K) 445 ± 31; (322.45 K) 387 ± 27; (332.45 K) 334 ± 23.

For `CCN(CC)CC` [triethylamine] + CCn1cc[n+](C)c1.CS(=O)(=O)[O-], the activity coefficient turned out to be 8.32 ± 0.57 (312.55 K), 14.3 ± 0.98 (322.45 K) and 18.8 ± 1.3 (332.45 K).

On to `Cc1cccc(C)c1` [1,3-dimethylbenzene] + CCCCCC[n+]1ccn(C)c1.FC(F)(F)C(F)(F)[P-](F)(F)(F)(C(F)(F)C(F)(F)F)C(F)(F)C(F)(F)F, for which the activity coefficient (312.8 K) worked out at 0.939 ± 0.059, the activity coefficient (332.85 K) was 0.997 ± 0.062 and the activity coefficient (354.65 K) turned out to be 1.01 ± 0.063.

For `ClC(Cl)Cl` [trichloromethane] + CCCCCC[n+]1ccn(C)c1.FC(F)(F)C(F)(F)[P-](F)(F)(F)(C(F)(F)C(F)(F)F)C(F)(F)C(F)(F)F, the activity coefficient is, setting by setting: (312.8 K) 1.09 ± 0.069; (332.85 K) 1.09 ± 0.069; (354.65 K) 1.05 ± 0.066.

For `CCCCCCCCCC` [decane] + CCCCCC[n+]1ccn(C)c1.FC(F)(F)C(F)(F)[P-](F)(F)(F)(C(F)(F)C(F)(F)F)C(F)(F)C(F)(F)F, the activity coefficient came to 22.7 ± 1.6 (312.8 K), 19 ± 1.3 (332.85 K) and 15.3 ± 1 (354.65 K).

Consider `CCOCC` [diethyl ether] + CCCCCCCCCCn1cc[n+](CCCCCCCCCC)c1C.O=S(=O)([N-]S(=O)(=O)C(F)(F)F)C(F)(F)F, for which the activity coefficient (323.1 K) stood at 0.746 ± 0.049, the activity coefficient (333.15 K) came out at 0.771 ± 0.05 and the activity coefficient (343.15 K) worked out at 0.773 ± 0.051.

Take `CCCCCCC` [heptane] + CCn1cc[n+](C)c1.CS(=O)(=O)[O-]: the activity coefficient stood at 432 ± 30 (312.55 K), 2230 ± 150 (322.45 K) and 497 ± 34 (332.45 K).

Consider `Cc1ccc(C)cc1` [1,4-dimethylbenzene] + CCCCCCCCCCn1cc[n+](CCCCCCCCCC)c1C.O=S(=O)([N-]S(=O)(=O)C(F)(F)F)C(F)(F)F, for which the activity coefficient is, setting by setting: (323.1 K) 0.647 ± 0.044; (333.15 K) 0.66 ± 0.045; (343.15 K) 0.657 ± 0.045.

`Cc1ccccc1C` [1,2-dimethylbenzene] + CCCCCC[n+]1ccn(C)c1.FC(F)(F)C(F)(F)[P-](F)(F)(F)(C(F)(F)C(F)(F)F)C(F)(F)C(F)(F)F: the activity coefficient reads like this: (312.8 K) 0.888 ± 0.057; (332.85 K) 0.947 ± 0.06; (354.65 K) 0.957 ± 0.06.

For the molecule `CCC[N+](=O)[O-]` [1-nitropropane] + CCCCCCCCCCn1cc[n+](CCCCCCCCCC)c1C.O=S(=O)([N-]S(=O)(=O)C(F)(F)F)C(F)(F)F, the activity coefficient reads like this: (323.1 K) 0.504 ± 0.038; (333.15 K) 0.487 ± 0.037; (343.15 K) 0.479 ± 0.037.
